According to patent US7666414B2, “Methods for treating prostate cancer using modified antibodies to prostate-specific membrane antigen” (Cornell Research Foundation, Inc., priority 2001, dated 2010):
Read-outs that look alike come from different tables or passages of the source.

Legend:
[1] = system: LNCaP cells tumor xenografts; assay: Murine J591-DM1 immunoconjugate in LNCaP xenografts; assay type: in vivo, BALB/c mice; settings: unconjugated, alone or with unconjugated mAb J591, intraperitoneal qday x 5 days
Description: Tumor xenografts of LNCaP cells were established in the right flank of BALB/c mice (5×10^6 cells injected subcutaneously). Animals were observed until tumors were visible (7-10 mm). Animals were then treated with PBS, unconjugated mAb J591, unconjugated DM1, both mAb J591 and DM1 but unconjugated, and J591-DM1 immunoconjugate (100, 200, 300, and 400 mcg/day intraperitoneal qday×5 days). The mAb J591 was modified to introduce dithiopyridyl groups and then conjugated to DM1 via a hindered disulfide bond, as described above. Unconjugated mAb J591 and DM1 were given in equimolar concentrations.
Tumor xenografts of both LNCaP cells (5×10^6 cells injected subcutaneously in the right flank) and PC3 cells (3×10^6 cells injected subcutaneously in the left flank) were established in BALB/c mice. Animals were observed until LNCaP tumors were visible (PC3 tumors were present but much smaller). Animals treated with J591-DM1 immunoconjugate: 300 mcg/day intraperitoneal qday×5 days
Tumor xenografts of LNCaP cells were established subcutaneously in the right flank of BALB/c mice. […]
All animals were photographed pre- and post-treatment and tagged for identification. Tumor volume was determined (length×width×depth) and closely followed. […]

[2] = system: PSMA-positive CWR22 xenografts; assay: Efficacy in PSMA-positive CWR22 xenografts; assay type: in vivo, C.B-17 scid mice
Description: (§1) Experiment: Male SCID mice were implanted by serial passage of CWR22 prostate tumor xenograft. […] All treatments were given intravenously. Tumor growth and animal health were continually monitored throughout the study with tumor growth measured every 3 days.
Experiment: Male C.B-17 SCID mice bearing CWR22 xenografts approximately 200 mm^3 in size received IV injections (200 μL constant volume) of the test articles according to the dose and schedule as shown in Table 22.
Male C.B-17 scid mice bearing CWR22 xenografts approximately 200 mm^3 in size received IV injections (200 μL constant volume) of the test articles according to the dose and schedule shown in the Table 23.
The objective of this study was to determine how much the dosing interval could be increased at this dosage before a loss of efficacy in terms of TGD would be observed. […] The growth delays for the other schedules were: q7d, 53.0 days; q21d, 48.0 days; and q28d, 26.9 days. Similar to other studies using the CWR22 xenograft model, no curative responses were observed, with all tumors eventually resuming growth (FIG. 18).
as §1, with “intravenously and on a schedule of every three days for 5 doses.” for “intravenously.”
as §1, with “intravenously and on a schedule of every seven days for 5 doses.” for “intravenously.”

[3] = system: PSMA-positive 22RV1 xenografts; assay: Efficacy in castrate or intact scid mice bearing androgen-independent 22RV1 xenograft; assay type: in vivo, C.B-17 scid mice; settings: 240 μg/kg, q3dX5
Description: Prostate tumors can be broadly classified as either androgen-dependent or androgen-independent. […] The 22RV1 cell line was originally developed as androgen-independent and can be grown as a xenograft in C.B-17 scid mice that have been left either intact or castrated. […] C.B-17 scid mice bearing CWR22 xenografts approximately 200 mm^3 in size received IV injections (200 μL constant volume) of the test articles according to the dosage and schedule shown in the Table 24.

CD-1 mice = system: CD-1 mice
Excerpt: Use of both mice and cynomolgus monkeys for nonclinical testing allowed comparison of exposure and toxicity across species on the basis of body surface area (mg/m^2), and thus aided in selecting the SSD for the proposed Phase 1 clinical trial.

Structure (SMILES): COc1cc2cc(c1Cl)N(C)C(=O)C[C@H](OC(=O)[C@H](C)N(C)C(=O)CCS)[C@]1(C)O[C@H]1[C@H](C)[C@@H]1C[C@@](O)(NC(=O)O1)[C@H](OC)/C=C/C=C(\C)C2 [DM1, reference compound]
- lethality [1]: died within 48 hours of treatment completion
- Tumor Growth Delay ([2]; Comparison II, 240 μg/kg, q3dX5): 9.5 days
- effect on CWR22 xenograft tumor growth ([2]; every three days for 5 doses, IV, equimolar to 14.5 mg/kg deJ591-DM1): some tumor growth delay
- Relative TGD (TGD of castrate mice/TGD of intact mice) [3]: 1.4
- Tumor Growth Delay ([3]; Castrate Mice): 9.1 days
- Tumor Growth Delay ([3]; Intact Mice): 6.3 days
- Degree of Toxicity and Major Target Organs (CD-1 mice; DM1 0.86 mg/m^2 (0.29 mg/kg), single IV, CD-1 mice): Slight mitosis/necrosis of epidermis
- Degree of Toxicity and Major Target Organs (CD-1 mice; DM1 1.62 mg/m^2 ([…]), single IV, CD-1 mice): Mild bone marrow myeloid
- mortality (CD-1 mice; DM1 8.64 mg/m^2 (2.88 mg/kg), single IV, CD-1 mice): 100% mortality attributed to severe
- elevated AST and ALT values (CD-1 mice; DM1 […]^2 (1.08 mg/kg), single IV, CD-1 mice): moderate mitosis/necrosis of liver; no
- STD (CD-1 mice; severely toxic dosage, single IV, CD-1 mice): 1.80 mg/kg
- toxicity compared to deJ591-DM1 at equimolar dosages (CD-1 mice; single IV administration): tended to be less toxic than deJ591-DM1 at lower dosages
- MTD (CD-1 mice; single IV, CD-1 mice): 1.08 mg/kg
